Laboratory results as given in patent US9328115B2, “Process for preparing meropenem trihydrate” (DAEWOONG PHARMACEUTICAL CO., LTD., priority 2012, dated 2016).

Assay: Water-solubility measurement at 26° C.
Assay type: physicochemical
Settings: in water, measured at 26° C.
Description: The water-solubilities of the methanol solvate of meropenem obtained in the above as well as meropenem trihydrate were measured at 26° C.

| SMILES | water-solubility [mg/mL] |
| --- | --- |
| C[C@@H](O)[C@H]1C(=O)N2C(C(=O)O)=C(S[C@@H]3CN[C@H](C(=O)N(C)C)C3)[C@H](C)[C@H]12 [meropenem trihydrate, (4R,5S,6S)-3-((3S,5S)-5-(dimethylcarbamoyl)pyrrolidin-3-ylthio)-6-((R)-1-hydroxyethyl)-4-methyl-7-oxo-1-azabicyclo[3.2.0]hept-2-ene-2-carboxylic acid] | 16.4 |
| C[C@@H](O)[C@H]1C(=O)N2C(C(=O)O)=C(S[C@@H]3CN[C@H](C(=O)N(C)C)C3)[C@H](C)[C@H]12 [methanol solvate of meropenem, (4R,5S,6S)-3-((3S,5S)-5-(dimethylcarbamoyl)pyrrolidin-3-ylthio)-6-((R)-1-hydroxyethyl)-4-methyl-7-oxo-1-azabicyclo[3.2.0]hept-2-ene-2-carboxylic acid] | 57.6 |
